Experimental data as given in patent US11629143B2, “HipK4 inhibitors and uses thereof” (Vibliome Therapeutics, LLC, priority 2020, dated 2023).

Legend:
Assay in all cases: Kinase panel (mobility shift)
Assay type in all cases: biochemical
EPH-A5 = EPH-A5 (Homo sapiens, UniProt P54756); conditions: at 5 um
Method: (§1) The disclosed compounds were tested for activity against a panel of 299 kinases. The target enzyme was incubated with fluorescently labeled substrate and test compounds in a standardized reaction mixture in 384 well plates. Upon termination of the reaction, samples were introduced onto microfluidic chips. The samples migrated through channels in the chips and product and substrate were separated based on the difference in their charge (electrophoretic mobility shift). Enzyme activity was measured by direct comparison of the fluorescence in the product and substrate peaks. […] In the tables A=95% or greater at 5 um, B=90%-94% at 5 um, and C=80%-89% at 5 um. [note to draft: we included category D for 50-79 and category E is less than 50%. Feel free to remove if not needed)

TIE2 = TIE2 (Homo sapiens, UniProt Q02763)
Method: as §1

P38-b = P38-b (Homo sapiens, UniProt Q15759)
Method: as §1

P38-a = P38-a (Homo sapiens, UniProt Q16539); conditions: at 5 um
Method: as §1

EPH-B2 = molecular target: T1, EPH-B2 (Homo sapiens, UniProt P29323); conditions: at 5 um
T1 sequence (P29323 19-1055): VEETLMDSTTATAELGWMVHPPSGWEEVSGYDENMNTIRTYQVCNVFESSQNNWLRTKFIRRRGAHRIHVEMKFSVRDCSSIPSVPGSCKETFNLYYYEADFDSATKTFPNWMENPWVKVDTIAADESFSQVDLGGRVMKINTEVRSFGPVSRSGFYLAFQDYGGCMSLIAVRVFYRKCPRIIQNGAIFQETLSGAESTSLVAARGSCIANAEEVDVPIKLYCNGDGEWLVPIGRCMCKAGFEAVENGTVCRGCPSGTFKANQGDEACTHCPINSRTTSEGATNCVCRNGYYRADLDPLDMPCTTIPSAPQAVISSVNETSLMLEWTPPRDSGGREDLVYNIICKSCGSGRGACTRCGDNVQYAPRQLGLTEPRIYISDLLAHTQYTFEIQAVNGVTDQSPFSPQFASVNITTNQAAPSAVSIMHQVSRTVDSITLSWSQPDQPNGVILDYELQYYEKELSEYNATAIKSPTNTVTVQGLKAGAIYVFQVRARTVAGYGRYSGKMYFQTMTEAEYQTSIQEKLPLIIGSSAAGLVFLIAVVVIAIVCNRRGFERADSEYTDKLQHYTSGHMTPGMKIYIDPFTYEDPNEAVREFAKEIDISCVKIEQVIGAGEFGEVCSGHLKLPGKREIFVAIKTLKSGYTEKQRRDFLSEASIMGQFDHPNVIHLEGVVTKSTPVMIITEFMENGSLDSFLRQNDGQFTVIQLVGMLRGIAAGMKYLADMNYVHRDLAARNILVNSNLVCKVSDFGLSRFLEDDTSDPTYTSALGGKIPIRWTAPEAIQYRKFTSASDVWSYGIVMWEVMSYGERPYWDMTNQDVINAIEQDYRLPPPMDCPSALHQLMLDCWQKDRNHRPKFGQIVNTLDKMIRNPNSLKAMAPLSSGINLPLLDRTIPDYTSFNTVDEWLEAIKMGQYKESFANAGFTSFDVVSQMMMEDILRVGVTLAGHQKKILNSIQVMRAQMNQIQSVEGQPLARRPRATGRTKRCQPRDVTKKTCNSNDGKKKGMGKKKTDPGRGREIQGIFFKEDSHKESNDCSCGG
Method: as §1

LOK = LOK (Homo sapiens, UniProt O94804); conditions: at 5 um
Method: as §1

HIPK4 = molecular target: T2, HIPK4 (Homo sapiens, UniProt Q8NE63)
T2 sequence (Q8NE63 1-616): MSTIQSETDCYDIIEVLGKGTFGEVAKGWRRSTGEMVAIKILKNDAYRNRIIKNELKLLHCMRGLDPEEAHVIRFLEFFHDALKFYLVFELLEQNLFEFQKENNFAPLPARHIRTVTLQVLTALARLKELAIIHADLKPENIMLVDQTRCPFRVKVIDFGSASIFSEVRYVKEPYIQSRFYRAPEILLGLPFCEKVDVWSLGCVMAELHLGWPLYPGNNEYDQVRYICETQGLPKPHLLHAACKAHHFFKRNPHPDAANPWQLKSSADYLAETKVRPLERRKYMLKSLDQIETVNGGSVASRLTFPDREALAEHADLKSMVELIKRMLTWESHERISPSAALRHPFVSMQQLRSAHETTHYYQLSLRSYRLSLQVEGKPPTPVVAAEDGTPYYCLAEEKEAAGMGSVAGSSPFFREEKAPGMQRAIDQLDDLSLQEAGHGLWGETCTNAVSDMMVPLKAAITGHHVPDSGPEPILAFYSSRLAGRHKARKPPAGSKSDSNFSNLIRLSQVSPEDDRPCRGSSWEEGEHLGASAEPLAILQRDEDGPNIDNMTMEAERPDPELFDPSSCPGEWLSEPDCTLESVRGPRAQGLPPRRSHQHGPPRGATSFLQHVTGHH
Method: as §1

Sequence of LOK (O94804 whole entry, species assumed): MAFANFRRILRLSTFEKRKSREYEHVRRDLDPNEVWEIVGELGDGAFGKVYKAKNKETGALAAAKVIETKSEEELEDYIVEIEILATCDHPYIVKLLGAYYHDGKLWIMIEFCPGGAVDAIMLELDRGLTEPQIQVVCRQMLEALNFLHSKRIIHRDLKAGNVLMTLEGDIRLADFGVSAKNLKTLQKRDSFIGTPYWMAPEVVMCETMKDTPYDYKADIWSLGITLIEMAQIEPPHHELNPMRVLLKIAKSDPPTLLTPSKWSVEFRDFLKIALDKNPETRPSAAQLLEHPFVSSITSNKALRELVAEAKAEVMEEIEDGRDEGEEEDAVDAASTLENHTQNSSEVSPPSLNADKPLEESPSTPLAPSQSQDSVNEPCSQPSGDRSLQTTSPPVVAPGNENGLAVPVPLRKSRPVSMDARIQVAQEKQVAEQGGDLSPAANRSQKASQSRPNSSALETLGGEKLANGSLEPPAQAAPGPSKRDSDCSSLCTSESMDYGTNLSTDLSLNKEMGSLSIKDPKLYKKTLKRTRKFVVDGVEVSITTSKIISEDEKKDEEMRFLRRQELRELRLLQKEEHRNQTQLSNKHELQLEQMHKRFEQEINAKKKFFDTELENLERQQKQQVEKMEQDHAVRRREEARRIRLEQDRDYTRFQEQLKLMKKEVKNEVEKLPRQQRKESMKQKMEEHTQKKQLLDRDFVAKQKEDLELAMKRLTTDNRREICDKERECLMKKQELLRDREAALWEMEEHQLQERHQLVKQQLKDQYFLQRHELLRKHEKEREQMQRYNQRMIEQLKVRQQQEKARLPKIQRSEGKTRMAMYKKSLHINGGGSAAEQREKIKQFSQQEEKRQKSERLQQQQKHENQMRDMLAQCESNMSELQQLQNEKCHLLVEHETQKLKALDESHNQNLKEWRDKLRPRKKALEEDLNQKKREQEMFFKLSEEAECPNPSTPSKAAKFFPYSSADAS
Sequence of TIE2 (Q02763 23-1124, species assumed): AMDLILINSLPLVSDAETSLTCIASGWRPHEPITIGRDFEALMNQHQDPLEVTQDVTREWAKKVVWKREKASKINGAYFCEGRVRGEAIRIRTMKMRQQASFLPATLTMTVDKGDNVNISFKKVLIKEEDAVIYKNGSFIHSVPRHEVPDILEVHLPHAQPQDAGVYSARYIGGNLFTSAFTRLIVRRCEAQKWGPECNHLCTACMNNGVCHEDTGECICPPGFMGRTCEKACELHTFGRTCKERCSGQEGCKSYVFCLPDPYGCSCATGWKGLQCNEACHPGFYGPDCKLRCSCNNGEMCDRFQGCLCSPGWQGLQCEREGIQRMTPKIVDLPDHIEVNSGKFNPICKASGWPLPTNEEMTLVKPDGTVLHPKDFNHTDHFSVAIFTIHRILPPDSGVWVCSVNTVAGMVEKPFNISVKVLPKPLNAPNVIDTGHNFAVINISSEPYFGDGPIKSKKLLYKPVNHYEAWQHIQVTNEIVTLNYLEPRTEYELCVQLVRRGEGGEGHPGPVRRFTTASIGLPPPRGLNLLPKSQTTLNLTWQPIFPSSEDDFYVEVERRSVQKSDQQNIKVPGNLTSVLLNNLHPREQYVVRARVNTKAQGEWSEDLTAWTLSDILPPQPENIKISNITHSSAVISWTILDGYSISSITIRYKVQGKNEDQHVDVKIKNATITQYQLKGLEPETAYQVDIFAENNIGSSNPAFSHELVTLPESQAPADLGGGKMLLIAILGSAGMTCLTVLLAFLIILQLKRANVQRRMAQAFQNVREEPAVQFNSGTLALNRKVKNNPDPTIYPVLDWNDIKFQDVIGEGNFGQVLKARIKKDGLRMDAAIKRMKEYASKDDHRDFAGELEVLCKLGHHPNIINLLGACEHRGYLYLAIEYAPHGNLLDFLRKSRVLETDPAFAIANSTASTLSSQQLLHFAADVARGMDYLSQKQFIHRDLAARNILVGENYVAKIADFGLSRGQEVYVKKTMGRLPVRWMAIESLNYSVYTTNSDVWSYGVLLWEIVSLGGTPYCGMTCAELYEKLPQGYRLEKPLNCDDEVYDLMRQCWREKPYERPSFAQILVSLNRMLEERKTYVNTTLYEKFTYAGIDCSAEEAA
Sequence of P38-b (Q15759 whole entry, species assumed): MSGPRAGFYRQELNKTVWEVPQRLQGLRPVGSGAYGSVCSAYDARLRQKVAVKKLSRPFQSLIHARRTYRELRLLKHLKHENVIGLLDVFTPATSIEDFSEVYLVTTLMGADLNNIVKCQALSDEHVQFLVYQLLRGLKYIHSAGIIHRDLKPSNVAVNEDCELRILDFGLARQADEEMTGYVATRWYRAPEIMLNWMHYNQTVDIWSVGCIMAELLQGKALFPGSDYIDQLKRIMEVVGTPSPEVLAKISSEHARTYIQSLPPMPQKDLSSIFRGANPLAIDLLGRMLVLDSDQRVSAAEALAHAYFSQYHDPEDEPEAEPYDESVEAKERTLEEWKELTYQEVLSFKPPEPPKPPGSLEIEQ
Sequence of EPH-A5 (P54756 25-1037, species assumed): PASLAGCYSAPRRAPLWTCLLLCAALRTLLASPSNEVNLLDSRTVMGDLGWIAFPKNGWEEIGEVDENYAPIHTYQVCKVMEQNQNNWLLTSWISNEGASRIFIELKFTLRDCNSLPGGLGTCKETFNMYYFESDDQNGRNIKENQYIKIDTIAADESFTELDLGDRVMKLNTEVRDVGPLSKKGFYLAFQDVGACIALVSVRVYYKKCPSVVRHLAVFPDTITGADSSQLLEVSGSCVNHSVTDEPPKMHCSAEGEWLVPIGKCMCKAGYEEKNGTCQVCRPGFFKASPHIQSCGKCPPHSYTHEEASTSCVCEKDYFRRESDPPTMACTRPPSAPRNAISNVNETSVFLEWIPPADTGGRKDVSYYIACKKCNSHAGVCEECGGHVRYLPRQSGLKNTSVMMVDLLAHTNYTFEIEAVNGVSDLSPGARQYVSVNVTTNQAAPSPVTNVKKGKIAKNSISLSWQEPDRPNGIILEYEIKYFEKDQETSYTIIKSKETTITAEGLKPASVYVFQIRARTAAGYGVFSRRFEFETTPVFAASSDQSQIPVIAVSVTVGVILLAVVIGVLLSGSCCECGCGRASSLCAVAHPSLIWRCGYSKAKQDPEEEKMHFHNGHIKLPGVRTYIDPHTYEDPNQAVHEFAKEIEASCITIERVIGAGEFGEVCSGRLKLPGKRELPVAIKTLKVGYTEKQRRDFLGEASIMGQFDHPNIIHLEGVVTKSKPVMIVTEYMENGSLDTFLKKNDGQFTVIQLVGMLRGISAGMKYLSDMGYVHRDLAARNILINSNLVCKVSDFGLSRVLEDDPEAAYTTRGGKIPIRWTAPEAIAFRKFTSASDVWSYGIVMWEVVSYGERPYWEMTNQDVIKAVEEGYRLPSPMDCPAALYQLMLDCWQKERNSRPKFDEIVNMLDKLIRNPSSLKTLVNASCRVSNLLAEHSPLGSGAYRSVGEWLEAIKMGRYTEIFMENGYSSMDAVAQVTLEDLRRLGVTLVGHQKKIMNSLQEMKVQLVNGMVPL
Sequence of P38-a (Q16539 whole entry): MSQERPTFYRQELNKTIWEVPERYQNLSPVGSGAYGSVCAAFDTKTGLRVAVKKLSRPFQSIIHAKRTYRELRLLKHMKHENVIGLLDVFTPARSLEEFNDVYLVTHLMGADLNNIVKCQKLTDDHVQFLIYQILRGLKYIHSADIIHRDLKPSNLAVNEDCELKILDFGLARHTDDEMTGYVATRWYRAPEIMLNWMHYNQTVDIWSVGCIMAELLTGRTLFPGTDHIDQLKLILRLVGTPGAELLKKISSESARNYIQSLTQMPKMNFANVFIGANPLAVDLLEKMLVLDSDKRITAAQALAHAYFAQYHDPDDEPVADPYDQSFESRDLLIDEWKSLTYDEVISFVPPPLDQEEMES

Row | inhibition of kinase activity, EPH-A5 (EPH-A5) | inhibition at 5 µM (TIE2) | inhibition at 5 µM (P38-b) | inhibition of kinase activity, P38-a (P38-a) | inhibition of kinase activity, EPH-B2 (EPH-B2) | inhibition of kinase activity, LOK (LOK) | inhibition at 5 µM (HIPK4) | SMILES
1 | E (category E is less than 50%) | < 50% | 80 to 89% | A (A=95% or greater at 5 um) | E (category E is less than 50%) | D (category D for 50-79) | ≥ 95% | CSc1nc(C(=O)Nc2ccc(Oc3ccnc(C(=O)NC4CNC4)c3)c(F)c2)c(-c2ccc(F)cc2)o1 [Compound 29]
2 | D (category D for 50-79) | 50 to 79% | 50 to 79% | D (category D for 50-79) | E (category E is less than 50%) | D (category D for 50-79) | ≥ 95% | CSc1nc(C(=O)Nc2ccc(Oc3cc4cnn(C)c4cc3Br)c(F)c2)c(-c2ccc(F)cc2)o1 [Compound 2]
3 | E (category E is less than 50%) | < 50% | < 50% | E (category E is less than 50%) | E (category E is less than 50%) | E (category E is less than 50%) | 80 to 89% | CNC(=O)c1ccc(Oc2ccc(NC(=O)c3nc(Cl)oc3-c3ccc(F)cc3)c(F)c2)cn1 [Compound 36]
4 | E (category E is less than 50%) | < 50% | < 50% | D (category D for 50-79) | E (category E is less than 50%) | E (category E is less than 50%) | ≥ 95% | CSc1nc(C(=O)Nc2ccc(Oc3ccnc(C(=O)NCC(F)(F)F)c3)c(F)c2)c(-c2ccc(F)cc2)o1 [Compound 40]
5 | E (category E is less than 50%) | < 50% | < 50% | E (category E is less than 50%) | E (category E is less than 50%) | E (category E is less than 50%) | ≥ 95% | COc1nc(C(=O)Nc2ccc(Oc3ccnc(C(=O)NCC(F)(F)F)c3)c(F)c2)c(-c2ccc(F)cc2)o1 [Compound 43]

The next lines start with the compound.

Row | SMILES | inhibition of kinase activity, EPH-A5 (EPH-A5) | inhibition at 5 µM (TIE2) | inhibition at 5 µM (P38-b) | inhibition of kinase activity, P38-a (P38-a) | inhibition of kinase activity, EPH-B2 (EPH-B2) | inhibition of kinase activity, LOK (LOK) | inhibition at 5 µM (HIPK4)
6 | [2H]C([2H])([2H])NC(=O)c1cc(Oc2ccc(NC(=O)c3nc(SC)oc3-c3ccc(F)s3)cc2F)ccn1 [Compound 35] | E (category E is less than 50%) | < 50% | < 50% | E (category E is less than 50%) | D (category D for 50-79) | D (category D for 50-79) | ≥ 95%
7 | CNC(=O)c1cc(Oc2ccc(NC(=O)c3nc(SC)oc3-c3ccc(F)s3)cc2F)ccn1 [Compound 16] | E (category E is less than 50%) | < 50% | < 50% | E (category E is less than 50%) | D (category D for 50-79) | D (category D for 50-79) | ≥ 95%
8 | CNC(=O)c1cc(Oc2ccc(NC(=O)c3nc(NC)oc3-c3ccc(F)cc3)cc2F)ccn1 [Compound 14] | D (category D for 50-79) | 50 to 79% | < 50% | D (category D for 50-79) | D (category D for 50-79) | C (C=80%-89% at 5 um) | ≥ 95%
9 | CNC(=O)c1cc(Oc2ccc(NC(=O)c3nc(OC4CC4)oc3-c3ccc(F)cc3)cc2F)ccn1 [Compound 32] | D (category D for 50-79) | 50 to 79% | 50 to 79% | D (category D for 50-79) | D (category D for 50-79) | B (B=90%-94% at 5 um) | ≥ 95%
10 | CSc1nc(C(=O)Nc2ccc(Oc3ccnc(C(=O)NC4CCN(C)CC4)c3)c(F)c2)c(-c2ccc(F)cc2)o1 [Compound 42] | E (category E is less than 50%) | < 50% | 80 to 89% | A (A=95% or greater at 5 um) | E (category E is less than 50%) | E (category E is less than 50%) | ≥ 95%
11 | CNC(=O)c1cc(Oc2ccc(NC(=O)c3nc(S(C)(=O)=O)sc3-c3ccc(F)cc3)cc2F)ccn1 [Compound 13] | D (category D for 50-79) | 50 to 79% | < 50% | E (category E is less than 50%) | E (category E is less than 50%) | E (category E is less than 50%) | ≥ 95%
12 | CSc1nc(C(=O)Nc2ccc(Oc3ccnc(C(=O)NCCN(C)C)c3)c(F)c2)c(-c2ccc(F)cc2)o1 [Compound 41] | D (category D for 50-79) | < 50% | 80 to 89% | A (A=95% or greater at 5 um) | D (category D for 50-79) | E (category E is less than 50%) | ≥ 95%
13 | CNC(=O)c1cc(Oc2ccc(NC(=O)c3nc(SC)oc3-c3ccc(F)cc3F)cc2F)ccn1 [Compound 12] | D (category D for 50-79) | 50 to 79% | < 50% | D (category D for 50-79) | D (category D for 50-79) | D (category D for 50-79) | 90 to 94%
14 | CNC(=O)c1cc(Oc2ccc(NC(=O)c3nc(OC)oc3-c3ccc(F)c(F)c3)cc2F)ccn1 [Compound 24] | E (category E is less than 50%) | < 50% | < 50% | D (category D for 50-79) | E (category E is less than 50%) | C (C=80%-89% at 5 um) | ≥ 95%
15 | CNC(=O)c1cc(Oc2c(F)cc(NC(=O)c3nc(NC)sc3-c3ccc(F)cc3)cc2F)ccn1 [Compound 19] | D (category D for 50-79) | 50 to 79% | < 50% | D (category D for 50-79) | D (category D for 50-79) | D (category D for 50-79) | ≥ 95%
